Experimental data reported in the NIST ThermoML archive (doi:10.1021/je800747v).

Test: xn = mol fraction of the nth substance listed
Details: 101 kPa, Liquid, Optical method

COCCOC [1,2-dimethoxyethane] + CCCCCCC
x1 = 0
Details | binary diffusion coefficient [m2/s]
276.64 K | 5.24e-09
277.73 K | 5.28e-09
281.59 K | 5.31e-09
284.32 K | 5.35e-09
287.28 K | 5.4e-09
289.59 K | 5.44e-09
292.83 K | 5.51e-09
294.95 K | 5.57e-09
296.37 K | 5.63e-09
298.46 K | 5.69e-09
301.29 K | 5.79e-09
304.98 K | 5.89e-09
306.86 K | 5.98e-09
310.67 K | 6.13e-09
312.41 K | 6.3e-09
316.09 K | 6.48e-09
319.27 K | 6.62e-09
322.81 K | 6.79e-09
325.36 K | 6.94e-09
328.78 K | 7.3e-09
332.63 K | 7.59e-09

COCCOCCOC [2,5,8-trioxanonane] + CCCCCCC
x1 = 0
Details | binary diffusion coefficient [m2/s]
276.64 K | 9.42e-10
277.73 K | 9.48e-10
281.59 K | 9.51e-10
284.32 K | 9.58e-10
287.28 K | 9.76e-10
289.59 K | 9.87e-10
292.83 K | 1e-09
294.95 K | 1.02e-09
296.37 K | 1.05e-09
298.46 K | 1.07e-09
301.29 K | 1.08e-09
304.98 K | 1.12e-09
306.86 K | 1.14e-09
310.67 K | 1.18e-09
312.41 K | 1.23e-09
316.09 K | 1.26e-09
319.27 K | 1.31e-09
322.81 K | 1.37e-09
325.36 K | 1.43e-09
328.78 K | 1.48e-09
332.63 K | 1.53e-09

CCCCCCC [heptane] + CCO
x2 = 0
Details | binary diffusion coefficient [m2/s]
276.64 K | 7.57e-09
277.73 K | 7.61e-09
281.59 K | 7.64e-09
284.32 K | 7.7e-09
287.28 K | 7.75e-09
289.59 K | 7.79e-09
292.83 K | 7.84e-09
294.95 K | 7.9e-09
296.37 K | 7.94e-09
298.46 K | 8.07e-09
301.29 K | 8.19e-09
304.98 K | 8.22e-09
306.86 K | 8.37e-09
310.67 K | 8.47e-09
312.41 K | 8.58e-09
316.09 K | 8.71e-09
319.27 K | 8.91e-09
322.81 K | 9.17e-09
325.36 K | 9.22e-09
328.78 K | 9.36e-09
332.63 K | 9.5e-09

[Cl-].[K+] [potassium chloride] + O
Details | binary diffusion coefficient [m2/s]
298.15 K, x1 = 0 | 1.86e-09
